Data published in BindingDB's records for doi:10.1021/jm00398a021 (Bristol-Myers, 1988).

Biological target: D(2) dopamine receptor (Rattus norvegicus, UniProt P61169)
Assay: ChEBML_58532
Source text: Ability to inhibit [3H]spiperone binding to Dopamine receptor D2 in rat corpus striatum

Chain of D(2) dopamine receptor (P61169 whole entry): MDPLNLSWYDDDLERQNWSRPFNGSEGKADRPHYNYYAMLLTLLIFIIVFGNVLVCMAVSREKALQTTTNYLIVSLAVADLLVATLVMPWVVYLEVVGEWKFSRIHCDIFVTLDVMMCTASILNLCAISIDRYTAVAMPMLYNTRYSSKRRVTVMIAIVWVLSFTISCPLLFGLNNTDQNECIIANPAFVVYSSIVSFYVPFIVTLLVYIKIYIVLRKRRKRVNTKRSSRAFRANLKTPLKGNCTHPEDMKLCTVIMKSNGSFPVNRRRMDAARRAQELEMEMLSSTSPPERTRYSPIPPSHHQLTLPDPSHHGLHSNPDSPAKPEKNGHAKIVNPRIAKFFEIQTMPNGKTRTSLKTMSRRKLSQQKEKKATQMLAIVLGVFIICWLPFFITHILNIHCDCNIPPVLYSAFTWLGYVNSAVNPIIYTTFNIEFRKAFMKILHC

For `O=c1scc(O)n1CCCCN1CCN(c2ccccn2)CC1`, the IC50 was > 1000 nM.
